According to the supplement of paper PMC11208160:

Test: recombinant UMI read abundance after kanamycin selection (control-corrected) (log10(CPM+1)); higher = more efficient recombination; extreme values may be limits of the assay; sequences stand for … in AGTGCAGAGAAAATCGGCCAGTTTTCTCTGCCTGCAGTCCGCATGCCGTGGGACCCCTTGGGTTCTAACCTGTTGCCTAGATTTATGCAGCGGACTGCCTTTCTCCCAAAGTGATAAACCGG…AGGTTGGTTTCACT; site = the 11-nt donor
Outline: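 The measure is log10(CPM+1) for recombinant UMIs. These were PCR-amplified across the donor–target junction and sequenced after Escherichia coli carrying a donor and donor-binding-loop pair library and a target plasmid with T7-inducible IS621 bridge recombinase was plated on IPTG (0.07 mM) plus kanamycin or unselected. CPM were averaged over two replicates and scaled by control-derived factors.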
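Further: IS621 bridge recombinase in Escherichia coli cells against a fixed T5 target plasmid.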

| Sequence | recombinant UMI read abundance (log10) |
| --- | --- |
| CGATGGACATGGACCGGTTTTCCCGGTAATCCGTATTTGTT (site CGATAGACTAA) | 1.25 |
| CGATGGACATGGACCGGTTTTCCCGGTAATCCGTATTTGTT (site CGATCGACTAA) | 0.00844 |
| CGATGGACATGGACCGGTTTTCCCGGTAATCCGTATTTGTT (site CGATGGACTAA) | 1.97 |
| CGATGGACATGGACCGGTTTTCCCGGTAATCCGTATTTGTT (site CGATTGACTAA) | 0.00606 |
| CGATGGTCATGGACCGGTTTTCCCGGTAATCCGTATTTGCT (site CGATCATCTAG) | 0 |
| CGATGGTCATGGACCGGTTTTCCCGGTAATCCGTATTTGCT (site CGATGGTCTAG) | 2.8 |
| CGATTGGCATGGACCGGTTTTCCCGGTAATCCGTATTTGCA (site CGATTGGCTTG) | 2.02 |
| CGCAATCCATGGACCGGTTTTCCCGGTAATCCGTATTTGTG (site CGCAATCCTCA) | 0.631 |
| CGCAATCCATGGACCGGTTTTCCCGGTAATCCGTATTTGTG (site CGGAATCCTAA) | 0 |
| CGCAATGCATGGACCGGTTTTCCCGGTAATCCGTATTTGTT (site CGCAATGCTAA) | 2.14 |
| CGCAATGCATGGACCGGTTTTCCCGGTAATCCGTATTTGTT (site CGGAATCCTAA) | 0 |
| CGCAGCACATGGACCGGTTTTCCCGGTAATCCGTATTTGAC (site CGCAGCACTGT) | 2.95 |
| CGCAGGCCATGGACCGGTTTTCCCGGTAATCCGTATTTGGG (site CGCAGGCCTCC) | 0 |
| CGCAGTACATGGACCGGTTTTCCCGGTAATCCGTATTTGCG (site CGCAGTACTCG) | 0.962 |
| CGCATACCATGGACCGGTTTTCCCGGTAATCCGTATTTGAC (site CGCATACCTGT) | 0 |
| CGCATAGCATGGACCGGTTTTCCCGGTAATCCGTATTTGTA (site CGCATAGCTTA) | 2.51 |
| CGCATTACATGGACCGGTTTTCCCGGTAATCCGTATTTGGC (site CGCATTACTGC) | 1.28 |
| CGCCCGGCATGGACCGGTTTTCCCGGTAATCCGTATTTGGT (site CGCCCGGCTAC) | 1.31 |
| CGCCCTCCATGGACCGGTTTTCCCGGTAATCCGTATTTGTT (site CGCCCTCCTAA) | 1.24 |
| CGCCGAACATGGACCGGTTTTCCCGGTAATCCGTATTTGCT (site CGCCGAACTAG) | 2.15 |
| CGCCGAACATGGACCGGTTTTCCCGGTAATCCGTATTTGCT (site CGCCGCACTAG) | 0.0174 |
| CGCCGAACATGGACCGGTTTTCCCGGTAATCCGTATTTGCT (site CGCCGGACTAG) | 0.95 |
| CGCCGAACATGGACCGGTTTTCCCGGTAATCCGTATTTGCT (site CGCCGTACTAG) | 0.00823 |
| CGCCGGGCATGGACCGGTTTTCCCGGTAATCCGTATTTGAC (site CGCCGGGCTGT) | 1.46 |
| CGCCGTACATGGACCGGTTTTCCCGGTAATCCGTATTTGAT (site CGCCGTACTAA) | 0.00486 |

| Sequence | recombinant UMI read abundance (log10) |
| --- | --- |
| CGCCGTACATGGACCGGTTTTCCCGGTAATCCGTATTTGAT (site CGCCGTACTAC) | 0.0168 |
| CGCCGTACATGGACCGGTTTTCCCGGTAATCCGTATTTGAT (site CGCCGTACTAG) | 0 |
| CGCCGTACATGGACCGGTTTTCCCGGTAATCCGTATTTGAT (site CGCCGTACTAT) | 1.37 |
| CGCCGTACATGGACCGGTTTTCCCGGTAATCCGTATTTGCC (site CGCCGTACTAG) | 0.256 |
| CGCCGTACATGGACCGGTTTTCCCGGTAATCCGTATTTGCC (site CGCCGTACTCG) | 0.114 |
| CGCCGTACATGGACCGGTTTTCCCGGTAATCCGTATTTGCC (site CGCCGTACTGG) | 1.55 |
| CGCCGTACATGGACCGGTTTTCCCGGTAATCCGTATTTGCC (site CGCCGTACTTG) | 0.384 |
| CGCCGTCCATGGACCGGTTTTCCCGGTAATCCGTATTTGCT (site CGCCGTACTAG) | 0.0123 |
| CGCCGTCCATGGACCGGTTTTCCCGGTAATCCGTATTTGCT (site CGCCGTCCTAG) | 0.666 |
| CGCCGTCCATGGACCGGTTTTCCCGGTAATCCGTATTTGCT (site CGCCGTGCTAG) | 0 |
| CGCCGTCCATGGACCGGTTTTCCCGGTAATCCGTATTTGCT (site CGCCGTTCTAG) | 0.012 |
| CGCCTAGCATGGACCGGTTTTCCCGGTAATCCGTATTTGTC (site TTGAATACTAG) | 0 |
| CGCCTATCATGGACCGGTTTTCCCGGTAATCCGTATTTGGC (site CGCCTATCTGC) | 1.93 |
| CGCCTTACATGGACCGGTTTTCCCGGTAATCCGTATTTGCT (site CGCCATACTAG) | 0.00361 |
| CGCCTTACATGGACCGGTTTTCCCGGTAATCCGTATTTGCT (site CGCCCTACTAG) | 0.675 |
| CGCCTTACATGGACCGGTTTTCCCGGTAATCCGTATTTGCT (site CGCCGTACTAG) | 0 |
| CGCCTTACATGGACCGGTTTTCCCGGTAATCCGTATTTGCT (site CGCCTTACTAG) | 1.57 |
| CGCCTTTCATGGACCGGTTTTCCCGGTAATCCGTATTTGAC (site AGCCTTTCTGT) | 0 |
| CGCCTTTCATGGACCGGTTTTCCCGGTAATCCGTATTTGAC (site CGCCTTTCTGT) | 0 |
| CGCCTTTCATGGACCGGTTTTCCCGGTAATCCGTATTTGAC (site GGCCTTTCTGT) | 0 |
| CGCCTTTCATGGACCGGTTTTCCCGGTAATCCGTATTTGAC (site TGCCTTTCTGT) | 0 |
| CGCGAGCCATGGACCGGTTTTCCCGGTAATCCGTATTTGGA (site CGCGAGCCTTC) | 0.181 |
| CGCGCTCCATGGACCGGTTTTCCCGGTAATCCGTATTTGTC (site CGCGCTCCTGA) | 1.94 |
| CGCGGACCATGGACCGGTTTTCCCGGTAATCCGTATTTGGG (site CGAGGACCTCC) | 0.0232 |
| CGCGGACCATGGACCGGTTTTCCCGGTAATCCGTATTTGGG (site CGCGGACCTCC) | 0 |

| Sequence | recombinant UMI read abundance (log10) |
| --- | --- |
| CGCGGACCATGGACCGGTTTTCCCGGTAATCCGTATTTGGG (site CGGGGACCTCC) | 0.0209 |
| CGCGGACCATGGACCGGTTTTCCCGGTAATCCGTATTTGGG (site CGTGGACCTCC) | 0.0246 |
| CGCGGCACATGGACCGGTTTTCCCGGTAATCCGTATTTGTA (site CGCGGCACTTA) | 1.66 |
| CGCGTCTCATGGACCGGTTTTCCCGGTAATCCGTATTTGTA (site CGCGTCTCTTA) | 3.26 |
| CGCTAATCATGGACCGGTTTTCCCGGTAATCCGTATTTGGG (site CGCTAATCTCC) | 1.5 |
| CGCTACTCATGGACCGGTTTTCCCGGTAATCCGTATTTGCT (site CGCTACTCTAG) | 2.85 |
| CGCTAGCCATGGACCGGTTTTCCCGGTAATCCGTATTTGCC (site CACTAGCCTGG) | 0.0111 |
| CGCTAGCCATGGACCGGTTTTCCCGGTAATCCGTATTTGCC (site CCCTAGCCTGG) | 0 |
| CGCTAGCCATGGACCGGTTTTCCCGGTAATCCGTATTTGCC (site CGCTAGCCTGG) | 0.816 |
| CGCTAGCCATGGACCGGTTTTCCCGGTAATCCGTATTTGCC (site CTCTAGCCTGG) | 1.8 |
| CGCTCAACATGGACCGGTTTTCCCGGTAATCCGTATTTGCT (site CGATCATCTAG) | 0 |
| CGCTCAACATGGACCGGTTTTCCCGGTAATCCGTATTTGCT (site CGCTCAACTAG) | 0 |
| CGCTCAGCATGGACCGGTTTTCCCGGTAATCCGTATTTGGG (site AGCTCAGCTCC) | 0 |
| CGCTCAGCATGGACCGGTTTTCCCGGTAATCCGTATTTGGG (site CGCTCAGCTCC) | 0.0677 |
| CGCTCAGCATGGACCGGTTTTCCCGGTAATCCGTATTTGGG (site GGCTCAGCTCC) | 0 |
| CGCTCAGCATGGACCGGTTTTCCCGGTAATCCGTATTTGGG (site TGCTCAGCTCC) | 0.00882 |
| CGCTCCGCATGGACCGGTTTTCCCGGTAATCCGTATTTGCA (site CGCTCCGCTTG) | 1.79 |
| CGCTCCTCATGGACCGGTTTTCCCGGTAATCCGTATTTGCA (site CGCTCCTCTTG) | 2.84 |
| CGCTGAGCATGGACCGGTTTTCCCGGTAATCCGTATTTGGT (site CGCTGAGCTAC) | 1.31 |
| CGCTGATCATGGACCGGTTTTCCCGGTAATCCGTATTTGCC (site CGCTGATCTGG) | 1.88 |
| CGCTGGACATGGACCGGTTTTCCCGGTAATCCGTATTTGAA (site CGCTGGACTTT) | 1.77 |
| CGCTGTACATGGACCGGTTTTCCCGGTAATCCGTATTTGCT (site CGCAGTACTAG) | 0 |
| CGCTGTACATGGACCGGTTTTCCCGGTAATCCGTATTTGCT (site CGCCGTACTAG) | 1.54 |
| CGCTGTACATGGACCGGTTTTCCCGGTAATCCGTATTTGCT (site CGCGGTACTAG) | 0 |
| CGCTGTACATGGACCGGTTTTCCCGGTAATCCGTATTTGCT (site CGCTGTACTAG) | 1.68 |
